The source of these data is patent US20100069433A1, “PROPHYLACTIC AND/OR THERAPEUTIC AGENT FOR HYPERLIPIDEMIA” (KOWA COMPANY, LTD., priority 2007, published 2010).

For assay [1], the system named is triglyceride concentration in blood plasma. The assay is described as follows: Plasma triglyceride concentration in Zucker fatty rats after repeated oral administration (Example 2). The following applies: compound A 0.1 mg/kg, pitavastatin 10 mg/kg, fenofibrate 100 mg/kg; for triglyceride concentration in blood plasma, Average value ± Standard error / triglyceride concentration in blood plasma, Relative value compared to control group: two weeks (14th day), oral once a day, N = 7-8; for rate of decrease of the triglyceride concentration in blood plasma: two weeks, vs control group. It is filed as in vivo, Male Zucker fatty rats. The method, then: The effect of administration of compound A and pitavastatin on the plasma triglyceride concentration in this animal model was determined according to the following methods.
Male Zucker fatty rats (Crlj: ZUC-Lepr^fa, Japan Charles River Co. Ltd., 10 weeks old) were taken for the test.
Throughout the test period, the rats were bred in a breeding room maintained with a light/dark cycle (bright period under room light: 7 A.M. to 7 P.M.) at a temperature of 23±3° C. and a humidity of 55±15%, and were allowed to freely take solid feedstuff (CE-2; Oriental Yeast Co. Ltd.) and tap water.
Compound A, pitavastatin and fenofibrate (Sigma-Aldrich Co. Ltd.) were each suspended in a 0.5 mass % aqueous solution of methylcellulose (Metolose (registered trademark) SM-400, Shin-Etsu Chemical Co. Ltd.), and the amount of administration of the aqueous solution was adjusted to be 2 mL/kg. The suspension was stored in a shading bottle under refrigeration (4° C.), and the preparation was carried out once every 7 days. Additionally, when the pitavastatin was a hydrate as in the case of the present Example, the water content of a standard product was measured by a conventional method known to those ordinarily skilled in the art, and the amount required in the production of drug based on the water content of the “pitavastatin calcium hydrate” used in the present Example was calculated.
In order to average the total cholesterol concentration and the triglyceride concentration in blood plasma, the rats were divided into the following six groups (eight animals each group), that is, a control group as a first group, a group administered with compound A only (0.1 mg/kg) as a second group, a group administered with pitavastatin only (10 mg/kg) as a third group, a group administered with fenofibrate only (100 mg/kg) as a fourth group, a group administered with pitavastatin (10 mg/kg) and compound A (0.1 mg/kg) in combination as a fifth group, and a group administered with pitavastatin (10 mg/kg) and fenofibrate (100 mg/kg) in combination as a sixth group.
The two medicaments were orally administered repeatedly for 14 days at a rate of once a day (in the morning). The control group of the first group was orally administered with 2 mL/kg of a 0.5 mass % aqueous solution of methylcellulose.
On the 14th day after the initiation of administration, the rats were fasted for 4 hours from administration, then blood was collected, and the triglyceride concentration in blood plasma was measured by an enzymatic method.
A multiple group comparison between the control group and the drug administered groups was conducted using Dunnett's multiple comparison test. A risk rate of less than 5% was determined to have a significant difference.

For assay [2] the test system is unchanged. The assay is described as follows: Triglyceride concentration in blood plasma of rats after repeated oral administration (Example 1). In kind it is in vivo, Male Sprague Dawley rats. Particulars: two weeks after the initiation of administration (14th day), oral once a day, pitavastatin 10 mg/kg, compound A 0.3 mg/kg, N = 8; for triglyceride concentration in blood plasma, Average value ± Standard error: in mg/dL. The method, then: (§1) Male Sprague Dawley rats (Crl: CD (SD), Japan Charles River Co. Ltd., 6 weeks old) were taken for the test. Throughout the test period, the rats were bred in a breeding room maintained with a light/dark cycle (bright period under room light: 7 A.M. to 7 P.M.) at a temperature of 23±3° C. and a humidity of 55±15%, and were allowed to freely take solid feedstuff (CE-2; Oriental Yeast Co. Ltd.) and tap water. Compound A and pitavastatin were each suspended in a 0.5 mass % aqueous solution of methylcellulose (Metolose (registered trademark) SM-400, Shin-Etsu Chemical Co. Ltd.), and the amount of administration of the aqueous solution was adjusted to be 2 mL/kg. The suspension was stored in a shading bottle under refrigeration (4° C.), and the preparation was performed once every 7 days. Additionally, when the pitavastatin is a hydrate as in the case of the present Example, the water content of a standard product can be measured by a conventional method known to those ordinarily skilled in the art, and the amount required in the production of drug based on the water content of the “pitavastatin calcium hydrate” used in the present Example can be calculated. […] The two medicaments were orally administered repeatedly for 14 days at a rate of once a day (in the morning). The control group of the first group was orally administered with 2 mL/kg of a 0.5 mass % aqueous solution of methylcellulose. […] Furthermore, the LDL-cholesterol concentration in blood plasma was measured using high performance liquid chromatography according to the method of Usui et al. (Lipid Res., 43:805-814, 2002). The results were shown in the form of average value±standard error. A multiple group comparison between the control group and the drug administered groups was conducted using Dunnett' s multiple comparison test. A risk rate of less than 5% was determined to have a significant difference.

The test system of assay [3] is LDL-cholesterol concentration in blood plasma. In words: LDL-cholesterol concentration in blood plasma of rats after repeated oral administration (Example 1). In kind it is in vivo, Male Sprague Dawley rats. Particulars: one week after the administration, oral once a day, pitavastatin 10 mg/kg, compound A 0.3 mg/kg, N = 8; for LDL-cholesterol concentration in blood plasma, Average value ± Standard error: in mg/dL. The method, then:
as §1

For another assay, the system named is blood glucose level. In words: Oral glucose tolerance test in Zucker fatty rats (Example 3). In kind it is in vivo, Male Zucker fatty rats. The following applies: 28 days oral once a day, compound A 0.3 mg/kg, pitavastatin 3 mg/kg, fenofibrate 100 mg/kg. The method, then:
As a method for examining diabetes mellitus, an oral glucose tolerance test, that is, a method in which a test subject fasted overnight is orally fed with a glucose solution, and blood is collected before and after the feeding, to examine the degree of increase in the blood glucose level, is widely performed. Thus, the Zucker fatty rat was used and administered with medicaments, and then an oral glucose tolerance test was performed to investigate the influence of the medicament of the present invention exerted on the blood glucose level. Male Zucker fatty rats (Crlj: ZUC-Lepr^fa, Japan Charles River Co. Ltd., 9 weeks old) were taken for the test. […] Additionally, when the pitavastatin was a hydrate as in the case of the present Example, the water content of a standard product was measured by a conventional method known to those ordinarily skilled in the art, and the amount required in the production of drug based on the water content of the “pitavastatin calcium hydrate” used in the present Example was calculated. […] The blood glucose level was measured by an enzymatic method. […] A risk rate of less than 5% was determined to have a significant difference.

Assay [4] relates to total cholesterol concentration in blood plasma. The assay is described as follows: Total cholesterol concentration in blood plasma of rats after repeated oral administration (Example 1). It is filed as in vivo, Male Sprague Dawley rats. The following applies: oral once a day, pitavastatin 10 mg/kg, compound A 0.3 mg/kg, N = 8. Here is the method: as §1
Assay [5] has as its system total plasma cholesterol concentration. Particulars: results of clinical trials; cited from earlier work.
Setting [6] is: one week after administration (7th day), 4 h fasted.
Setting [7] is: two weeks after the initiation of administration (14th day).
Setting [8] is: two weeks after the initiation of administration (14th day), in mg/dL.

`CC(C)OC(=O)C(C)(C)Oc1ccc(C(=O)c2ccc(Cl)cc2)cc1` [Fenofibrate, fenofibrate]: in assay [1], the “triglyceride concentration in blood plasma, Average value ± Standard error” value is 546.3 ± 58.9 mg/dL; the “triglyceride concentration in blood plasma, Relative value compared to control group” value is recorded as 0.841; the “rate of decrease of the triglyceride concentration in blood plasma” value (“rate of decrease … in blood plasma” below) turned out to be 16%.
Turning to `CC[C@@H](Oc1cccc(CN(CCCOc2ccc(OC)cc2)c2nc3ccccc3o2)c1)C(=O)O` [Compound A, (R)-2-[3-[[N-(Benzoxazol-2-yl)-N-3-(4-methoxyphenoxy)propyl]aminomethyl]phenoxy]butyric acid], the entries for the “triglyceride concentration in blood plasma, Relative value compared to control group” value in assay [2], in assay [2] (listed as compound A) and in assay [1] were 0.806, 0.942 and 0.798, respectively. For the same molecule, the “triglyceride concentration in blood plasma, Average value ± Standard error” value in assay [2] is 33.3 ± 2.2; in assay [1] it was 518.0 ± 106.0 mg/dL. The “LDL-cholesterol concentration in blood plasma, Relative value compared to control group” value in assay [3] is reported as 0.698. Also, the “LDL-cholesterol concentration in blood plasma, Average value ± Standard error” value in assay [3] is given as 8.1 ± 0.4. Besides, the “rate of decrease … in blood plasma” value in assay [1] stood at 20%. In addition, the “change in blood glucose level over time after glucose loading (FIG. 3A)” value in the assay on blood glucose level was “rapid increases in the blood glucose level”. For the same molecule, the “total cholesterol concentration in blood plasma, Average value ± Standard error” value in assay [4] (setting [6]) is 48.3 ± 1.8 mg/dL; in assay [4] (setting [8]), 43.4 ± 1.9. The “total cholesterol concentration in blood plasma, Relative value compared to control group” value is on record as 0.792 in assay [4] (one week after administration (7th day)); 0.903 in assay [4] (one week after administration (7th day), listed as compound A); 0.752 in assay [4] (setting [7]).
Take `O=C(O)C[C@H](O)C[C@H](O)/C=C/c1c(C2CC2)nc2ccccc2c1-c1ccc(F)cc1` [Pitavastatin, pitavastatin calcium hydrate]: the “triglyceride concentration in blood plasma, Relative value compared to control group” value in assay [2] stood at 0.942; in assay [2] (calcium hydrate) it was 0.806; in assay [1] it was 0.943. Besides, the “triglyceride concentration in blood plasma, Average value ± Standard error” value in assay [2] amounted to 38.9 ± 3.1; in assay [1], 612.2 ± 61.0 mg/dL. Also, the “LDL-cholesterol concentration in blood plasma, Relative value compared to control group” value in assay [3] stood at 0.974. Also, the “LDL-cholesterol concentration in blood plasma, Average value ± Standard error” value in assay [3] is given as 11.3 ± 1.8. In addition, the “rate of decrease … in blood plasma” value in assay [1] is reported as 6%. In addition, the “rate of improvement in the total plasma cholesterol concentration” value in assay [5] was 93.9%. Besides, in the assay on blood glucose level, the “change in blood glucose level over time after glucose loading (FIG. 3A)” value is listed as “rapid increases in the blood glucose level”. The entries for the “total cholesterol concentration in blood plasma, Average value ± Standard error” value in assay [4] (setting [6]) and in assay [4] (setting [8]) were 55.1 ± 5.7 mg/dL and 57.5 ± 6.6, respectively. For the same molecule, the “total cholesterol concentration in blood plasma, Relative value compared to control group” value is recorded as 0.903 in assay [4] (one week after administration (7th day), calcium hydrate); 0.792 in assay [4] (one week after administration (7th day), listed as pitavastatin, calcium hydrate); 0.997 in assay [4] (setting [7]).
